We go through 3 sequences from patent publication US20250009861A1, “ANTI-CANCER VACCINE COMPOSITION COMPRISING PEPTIDES DERIVED FROM TUMOR-ASSOCIATED ANTIGEN, AND ADJUVANT CONSISTING OF LIPOPEPTIDE AND IMMUNOACTIVE SUBSTANCE, AND USE THEREOF” (CHA VACCINE RESEARCH INSTITUTE CO., LTD, priority 2021, published 2025).

For the assay, the system named is peripheral blood mononuclear cells (PBMCs). As to the kind of experiment: IFN-γ ELISPOT immunogenicity assay in PBMCs. The format is cell-based, human. The following applies: single peptides, PBMCs of healthy people, compared to control untreated with peptides; FIG. 1. As for the experimental part:
To confirm the immunogenicity of the 13 peptides selected in Example 1, interferon gamma (IFNg)-enzyme linked immuno-SPOT assay (ELISPOT) was performed.
This experiment is a sensitive immunoassay that can detect cytokines secreted by a single cell. By attaching the cytokines secreted when cells are activated to a capture antibody, the secreted cytokines can be measured without being affected by proteins expressed on the cell surface or proteolytic enzymes. After attaching the cytokine to the capture antibody, the cells are removed, a detecting antibody conjugated to an enzyme that can recognize the attached capture antibody is added, and a chromogenic substrate for the enzyme is added, forming a chromogenic spot at the location of the cell secreting the cytokine, and the number of spots can be used to determine the number of cells that have responded to the stimulating antigen.
The peripheral blood mononuclear cells (PBMCs) required for the experiment were isolated from human venous blood as follows. The venous blood was diluted with 1×PBS, placed in SepMate-50 tubes, and centrifuged at 800 g for 20 minutes at room temperature. After centrifugation, the plasma and the separated PBMCs were washed, placed in each well of a 6 well tissue culture plate at a concentration of 1×10^6 cells/mL, and cultured overnight in an incubator (37° C., 5% CO2). The next day, the PBMC culture solution was recovered and centrifuged at 2000 rpm for 15 minutes at room temperature. After centrifugation, PBMCs were seeded in a 6 well cell culture plate, and peptides were added thereto and cultured to stimulate the cells.
At this time, the 13 peptides selected in Example 1 were treated alone or with various peptide combinations, and an untreated group and a ConA group were also prepared for comparative analysis. […] After attaching ELI-FOIL to the dried ELISPOT plate and stamping the membrane, the number of spots in each well was read using an ELISPOT reader. […]
For FLWGPRALV [CHA-11], the “immunogenicity (IFN-γ ELISPOT spots)” value is given as “lowest immunogenicity”.
In the case of “LMLGEFLKL [CHA-6, Survivin (97-104) derived peptide, HLA class I, A02; excluded]”, the “immunogenicity (IFN-γ ELISPOT spots)” value is recorded as “lowest immunogenicity”.
As for “TQHFVQENYLEY [CHA-10, Mage-A3 (246-260) derived peptide, HLA class II, DRB1; excluded]”, the entry is “lowest immunogenicity”.
